This is an account of results in patent publication US10456398B2, “Inhibition of SGK1 in the treatment of heart conditions” (Beth Israel Deaconess Medical Center, Inc., priority 2013, dated 2019).

Molecules are shown by their SMILES.

In series [1] the target is T1, SGK1 (Homo sapiens, UniProt O00141, S422D).
T1 construct: expressed in transfected cells; host or cells: neonatal rat ventricular myocytes (NRVMs) infected with adenovirus Ad.SGK1-CA
T1 sequence (O00141 1-431 S422D): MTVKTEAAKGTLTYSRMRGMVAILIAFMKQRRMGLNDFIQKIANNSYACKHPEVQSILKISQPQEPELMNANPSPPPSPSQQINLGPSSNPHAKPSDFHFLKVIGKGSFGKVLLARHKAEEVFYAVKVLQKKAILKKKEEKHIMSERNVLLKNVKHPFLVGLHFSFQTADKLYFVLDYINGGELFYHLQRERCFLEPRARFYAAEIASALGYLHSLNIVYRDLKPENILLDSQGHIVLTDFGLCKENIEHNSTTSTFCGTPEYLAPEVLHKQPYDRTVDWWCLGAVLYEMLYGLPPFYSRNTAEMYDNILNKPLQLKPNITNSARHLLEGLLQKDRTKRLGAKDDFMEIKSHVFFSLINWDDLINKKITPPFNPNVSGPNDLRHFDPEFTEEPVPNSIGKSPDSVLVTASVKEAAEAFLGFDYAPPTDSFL
Briefly: cell-based cardiomyocyte assay: SGK1-CA driven phosphorylation of GSK3β in NRVMs (immunoblot). The arrangement: species or system rat. On the procedure: (§1) These inhibitors were further characterized using a cell-based cardiomyocyte system (FIG. 3). 2×10^6 neonatal rat ventricular myocytes (NRVMs) were plated on 60 mm plates in DMEM containing 10% horse serum, 5% fetal bovine serum, 1% L-glutamine and 1% penstrep antibiotic. 24 h after plating media was changed to DMEM containing 1% L-glutamine, and 24 h following cells were infected with SGK-CA virus and treated with various concentrations of SGK inhibitors 5377051 (Compound 1A) and 6410136 (Chembridge compound catalogue #6410136). 12 h after infection and treatment, the media was changed and cells were treated again. 12 h following the second treatment NRVMs were harvested and lysed in 300 uL of cell lysis buffer (Cell Signaling) containing protease and phosphatase inhibitors and PMSF at 4 degrees C. for 1 h with shaking. Lysates were subjected to immunoblotting with an antibody against phospho […]-glycogen synthase kinase beta (p-GSK3β), a well-established SGK1 substrate. For gel electrophoresis, 50 ug of protein per well was loaded, transferred to nitrocellulose membrane, blocked, and incubated with GAPDH and P-GSK3β primary antibodies. As expected, Ad.

The subject of series [2] is bkd−/− mutant zebrafish. Briefly: rescue of 2:1 AV block phenotype in breakdance (bkd−/−) mutant zebrafish. It is filed as in vivo. The arrangement: percent rescue at peak concentration relative to morpholino: dose or concentration left out as unconfirmed. From the text:
The zebrafish breakdance mutant (Bkd−/−) fish is a unique model of action potential prolongation due to a mutation in the Zerg (zebrafish HERG) channel, that recapitulates human LQT2 syndrome and has been used in high throughput screens to identify molecules that may shorten the action potential duration. The phenotypic manifestation of the prolonged QT interval in the Bkd −/− fish is the presence of functional 2:1 AV block, and previous screens have taken advantage of this easily quantifiable phenotype to screen for ‘rescue’ from 2:1 AV block.
Bkd^−/− (Breakdance) adults were crossed, and the resultant embryos were reared in E3 buffer at 25° C. 24 hours post-fertilization (hpf) animals were dechorionated with pronase and plated per well in 96-well plates in a final volume of 200 μL. At 48 hpf, compounds were added to the appropriate concentration. Zebrafish were visually scored at 72 hpf for presence or absence of 2:1 AV block. For the dose response curve, the fish at 48 hpf were treated for 24 hours at the desired concentration (from 20 mM stock in DMSO) and scored for suppression of breakdance phenotype. Genetic inhibition of SGK1 was achieved either by injection of 500 μM of SGK1 morpholino or SGK1-dominant negative mRNA at the 1-2 cell stage and the fish were scored for rescue of 2:1 AV block at the 99 hpf stage.

Series [3] concerns Akt. Briefly: cardiomyocyte assay: Akt (myr-Akt) mediated phosphorylation of GSK3β in NRVMs (immunoblot). The class given is cell-based, rat. The conditions noted are these: NRVMs infected with Ad.myr-Akt, FIG. 8B, FIG. 3. The method, then: as §1, with “As expected, Ad.” left out
Because SGK1 and Akt are structurally related but have very different roles in the heart, with Akt deemed to be cardioprotective against stress, the inhibitors were assessed to determine if they have an off-target effect on Akt in CMs. […]

For `O=C1NC(=S)NC(=O)C1=Cc1ccccc1OCc1ccc(Cl)cc1` [Compound 1A], the “effect on Ad.SGK1-CA induced increase in p-GSK3β” value in series [1] (NRVMs infected with SGK1-CA virus, FIG. 8A, FIG. 9) is “inhibited”. Moreover, the “ability to inhibit SGK1 compared with EMD 638683” value in series [1] (cellular assay, 10 micromolar compounds, FIG. 8C) is on record as “better or at least equivalent”. The “percent rescue of 2:1 AV block phenotype” value in series [2] (bkd−/− fish, compound at 45 μM) was found to be 58%. Also, the toxicity entry in series [2] (bkd−/− fish, concentrations up to 50 μM) is “minimal and stable toxicity”. For the same molecule, in series [2] (bkd−/− zebrafish, FIG. 2), the “percent rescue at peak concentration relative to morpholino” value was “comparable to rescue by morpholino” and the “toxicity in the dosages tested” value is “no significant increase in toxicity”. Further, the “effect on Akt-mediated phosphorylation of GSK-3β (p-GSK3β)” value in series [3] is “neither 5377051 nor 6410136 caused a significant inhibition”.
